Test results reported in publication PMC10590383, “Repurposing conformational changes in ANL superfamily enzymes to rapidly generate biosensors for organic and amino acids” (Nature Communications, 2023).

Test: Dose–response curve of purified […]s with isoleucine
Format: biochemical
Design: key to Dose-response, AVE of Repeat 1-3 (Fig. 3 i): normalized ΔF/F0 (fluorescence change over baseline)
Conditions: for fluorescence response of GECFINDER, AVE of 3 repeats: Supplementary Fig. 3 g
Protocol: Fig. 3 Dose–response curves and fluorescence spectrums of […]s. a, c, e, g, i, k Dose–response curve of purified […]s with increasing concentrations of ligand in 100 mM Tris-HCl buffer (pH=7.5). The normalized ΔF/F0 value increased after ligand binding. All data shown are mean ± S.D. (n = 3 biologically independent samples). b, d, f, h, j, l The fluorescence spectra of […]s changed as the ligand concentration increased. All data shown are mean ± S.D. (n = 3 biologically independent samples). Source data are provided as a Source data file.
The study conducted dose–response curve, substrate specificity, and fluorescent spectrum analyses in 100-mM Tris buffer (pH = 7.5), while pH stability experiments were performed in 100-mM Tris buffer at three different pH values (6.5, 7.5, and 8.5) at room temperature. […] protein at a concentration of 0.75 μM, various small molecule concentrations, 1 mM ATP, and 2.5 mM MgCl2 were used in the experiments. Fluorescent signals were detected using a Microplate Reader (Synergy H4, Bio Tek) at an excitation/emission wavelength of 460 nm/510 nm or 480 nm/510 nm. The dose-response curve was determined immediately after the addition of the analyte. The total duration of the measurement was 15 min, with readings taken at one-minute intervals. The dose-response curve was plotted using the fluorescence values obtained after achieving stability in the fluorescence signal. The dose-response curves were fitted using the logistic model LOGISTIC5 available in Origin 2021, which could provide a more adequate fit to asymmetric dose-response data[62],[63]. Excitation spectra were scanned from 300 to 540 nm with a step size of 5 nm, and the emission wavelength was set to 560 nm. Emission spectra were scanned from 470 to 700 nm with a step size of 5 nm, and the excitation wavelength was set to 450 nm. The thermal stability of […] was analyzed using the UNcle multifunctional protein stability analysis system. Measurements were performed in 20 mM MOPS buffer with 2 mM DTT at a sample concentration of 1 mg/mL. Absolute fluorescence quantum yields were measured using an absolute photoluminescence quantum yield spectrometer (FS5, Edinburgh). […]
Ile (μM) Wave le ngth( nm ) Ile (μM) Wave le ngth( nm )
Supplementary Fig. 2 Dose–response curves and fl uorescen ce spectr ums of GEC FINDERs. a and c, Dose– re spons e curves of puri fi ed GECF INDE R-P he1 and 2 with increas ing concen tra tions of phenylalanine (1 nM to 100 μM). The norm alized ΔF/F 0 value increas ed aft er phenylalanine binding (4 60 nm excita tion) . b and d, The fl uore scen ce spect ra of GECF IN DER-P he1 and 2 changed as the phe nylalanine concen tra tion incre ased fro m 1 nM to 100 μM. e and g, Dose–re spon se curv es of puri fied GECF IN DER-Il e1 and 2 with increas ing concen tra tio ns of isoleucine (50 nM to 10 mM). The norm alized ΔF/F 0 value increas ed aft er isoleucine binding (4 80 nm excita tion) . f and h, The fl uore scen ce spect ra of GECF INDE R-Il e1 and 2 change d as the isoleucine concen tration increas ed fro m 0.5 μM to 10 mM. i, Dose–re spon se curv e of puri fi ed GECF INDE R-H is1 with increas ing concen tra tio ns of histid ine (5 nM to 1 mM). The Norm alized ΔF/F 0 increas ed aft er histidine binding (480 nm excita tion). j, The fl uore scen ce spect ra of GECFIN DER-H is1 changed as the histid ine concen tra tion increas ed fro m 5 nM to 1 mM. k, Diffe re nce in fl uore scen ce intensity of GECF INDE R-b enzoic aci d in the pre sence of 10 µM benzoic aci d compare d to the cont ro l (0 µM benzoic aci d). […] (n=3 biological ly independent samples). *p ≤ 0.05, ***p ≤ 0.001, ****p ≤ 0.0001, and n.s. indicat ed no signifi can t diffe re nce (S tude nt’s two-t aile d t-t est). Source data are provi ded as a Source Data file . […]

CC[C@H](C)[C@H](N)C(=O)O [Ile]
Dose-response, AVE of Repeat 1-3 (Fig. 3 i) (Ile 0.05 μM): 0
Dose-response, AVE of Repeat 1-3 (Fig. 3 i) (Ile 0.1 μM): 0.02113
Dose-response, AVE of Repeat 1-3 (Fig. 3 i) (Ile 0.5 μM): 0.03402
Dose-response, AVE of Repeat 1-3 (Fig. 3 i) (Ile 5 μM): 0.05594
Dose-response, AVE of Repeat 1-3 (Fig. 3 i) (Ile 50 μM): 0.1628
Dose-response, AVE of Repeat 1-3 (Fig. 3 i) (Ile 100 μM): 0.2049
Dose-response, AVE of Repeat 1-3 (Fig. 3 i) (Ile 250 μM): 0.2905
Dose-response, AVE of Repeat 1-3 (Fig. 3 i) (Ile 500 μM): 0.3097
Dose-response, AVE of Repeat 1-3 (Fig. 3 i) (Ile 1000 μM): 0.3698
Dose-response, AVE of Repeat 1-3 (Fig. 3 i) (Ile 5000 μM): 0.4681
Dose-response, AVE of Repeat 1-3 (Fig. 3 i) (Ile 7500 μM): 0.4489
Dose-response, AVE of Repeat 1-3 (Fig. 3 i) (Ile 10000 μM): 0.4411
fluorescence response of GECFINDER, AVE of 3 repeats (Ile 0.05 μM): -6.245e-17
fluorescence response of GECFINDER, AVE of 3 repeats (Ile 0.1 μM): 0.01149
fluorescence response of GECFINDER, AVE of 3 repeats (Ile 0.5 μM): 0.02425
fluorescence response of GECFINDER, AVE of 3 repeats (Ile 5 μM): 0.01608
fluorescence response of GECFINDER, AVE of 3 repeats (Ile 50 μM): 0.05759
fluorescence response of GECFINDER, AVE of 3 repeats (Ile 100 μM): 0.08825
fluorescence response of GECFINDER, AVE of 3 repeats (Ile 250 μM): 0.1283
fluorescence response of GECFINDER, AVE of 3 repeats (Ile 500 μM): 0.1586
fluorescence response of GECFINDER, AVE of 3 repeats (Ile 1000 μM): 0.1861
fluorescence response of GECFINDER, AVE of 3 repeats (Ile 5000 μM): 0.2413
fluorescence response of GECFINDER, AVE of 3 repeats (Ile 7500 μM): 0.2222
fluorescence response of GECFINDER, AVE of 3 repeats (Ile 10000 μM): 0.2208
